# Data reported in publication PMC9960274, “Peptidic Inhibitors and a Fluorescent Probe for the Selective Inhibition and Labelling of Factor XIIIa Transglutaminase” (Molecules, 2023).
# Entries after “also recorded” stand apart in the source; their conditions may differ. Starred links: 1 amine or outer side, 2 acyl side, 3 side chain; linkers in the order of their positions; H or OH if unused. Non-standard residues stand in square brackets, D forms with d. Residues, ends and D or L forms follow the SMILES beside them. *: point of attachment. RhodamineB = CCN(CC)c1ccc2c(-c3ccccc3C(=O)*)c3ccc(=[N+](CC)CC)cc-3oc2c1; X1 = COC(=O)/C=C/CC[C@H](N[*:1])C(=O)[*:2]; X2 = COC(=O)C=CCCC[C@H](N[*:1])C(=O)[*:2]; X3 = COC(=O)C=CC[C@H](N[*:1])C(=O)[*:2]; Nle = CCCC[C@H](N)C(=O)O; Orn = NCCC[C@H](N)C(=O)O; Dab = NCC[C@H](N)C(=O)O; Acryloyl = C=CC(=O)*; Ahx = NCCCCCC(=O)O
# Target: T1, Human TG2 (Homo sapiens, UniProt P21980)
# T1 construct: made in house
# T1 sequence (P21980 1-687): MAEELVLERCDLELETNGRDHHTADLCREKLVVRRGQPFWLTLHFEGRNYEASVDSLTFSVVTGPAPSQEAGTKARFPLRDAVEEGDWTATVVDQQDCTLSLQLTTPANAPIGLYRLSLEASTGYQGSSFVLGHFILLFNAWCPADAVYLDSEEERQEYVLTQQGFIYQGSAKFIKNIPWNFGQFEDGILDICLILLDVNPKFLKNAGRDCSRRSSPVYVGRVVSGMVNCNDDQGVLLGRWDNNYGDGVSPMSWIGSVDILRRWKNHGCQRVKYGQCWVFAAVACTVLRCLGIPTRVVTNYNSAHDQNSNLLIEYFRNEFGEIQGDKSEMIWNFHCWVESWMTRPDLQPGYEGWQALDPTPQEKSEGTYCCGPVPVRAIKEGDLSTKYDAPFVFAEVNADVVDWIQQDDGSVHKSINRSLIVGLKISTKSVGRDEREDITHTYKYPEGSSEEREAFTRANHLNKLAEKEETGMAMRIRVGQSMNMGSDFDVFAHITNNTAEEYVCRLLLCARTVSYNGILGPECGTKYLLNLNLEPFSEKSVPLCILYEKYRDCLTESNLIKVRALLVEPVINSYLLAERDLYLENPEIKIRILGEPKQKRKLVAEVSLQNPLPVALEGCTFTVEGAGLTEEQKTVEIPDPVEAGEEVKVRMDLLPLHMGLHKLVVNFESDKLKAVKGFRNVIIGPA
# Test: Colorimetric AL5 transamidase assay of TG2 inhibition kinetics
# Assay type: biochemical
# Settings: for TG2 Inh. Mode: Irrev = irreversible, None = no inhibition detected up to 350 μM; for kinact/KI / kinact: irreversible inhibition; for TG2 inhibition: up to 360 µM; for kinact: saturation fit
# Procedure: All inhibitors synthesised herein were evaluated for inhibition against FXIIIa, using the fluorescence-quenched A101 isopeptidase assay, and against TG2, using the colorimetric AL5 transamidase assay. The assay substrates A101 and AL5 both present labile bonds that are cleaved by the activities of their corresponding transglutaminases, resulting in the release of a fluorophore or chromophore moiety, respectively. The rate of consumption of these assay substrates, indicated by increases in fluorescence or absorbance over time, can be detected for measuring enzyme activity. Assays were run in duplicate at constant reporter substrate concentration with varying concentrations of inhibitor. The type of inhibition was determined through visual inspection of the fluorescence-time curvature; termination of the enzymatic reaction with the substrate at a plateau lower than the no-inhibitor positive control is indicative of irreversible inhibition. On the other hand, convergence to a common plateau indicates reversible inhibition.
# A colorimetric transamidase assay using chromogenic substrate AL5 (Cbz-Glu(ɣ-p-nitrophenyl ester)Gly-OH) was used to determine TG2 inhibition kinetics as described previously. In brief, assays were conducted at 25 °C in 96-well plates, and absorbance at 405 nm was monitored continuously using a BioTek Synergy 4 plate reader. For each compound, 6 inhibitor concentrations were tested, along with positive (no inhibitor) and negative (no enzyme, no inhibitor) controls. All assays were run in duplicate as separate independent experiments. Human TG2 expressed and purified as described previously and stored in aqueous buffer at −80 °C, was first thawed and diluted to a working concentration of 50 mU/mL in the buffer. The diluted enzyme solution was stored on ice. The appropriate amount of distilled water, 125 μL of aqueous buffer (111 mM MOPS, 15.6 mM CaCl2, pH 6.9), the desired amount of inhibitor (from a DMSO stock solution), and 5.0 μL of AL5 (from a 5.56 mM DMSO solution) were added in that order to 7 Eppendorf tubes to reach final volumes of 250 μL per tube. After mixing thoroughly, 180 μL of the mixture from each tube was transferred to plate wells. To initiate the assay, 20 μL of the diluted TG2 solution was added using a multichannel pipette to each well except the negative control, which was treated with water. The final reaction conditions were pH 6.9, 50.0 mM MOPS, 7.0 mM CaCl2, 100 μM AL5, and 5 mU/mL TG2. […] Data collection was then initiated after mixing by quick aspiration, and the assay was allowed to run for 20 min.
# The type of inhibition for both TG2 and FXIIIa was primarily determined by visual inspection of kinetic traces. […] This assumption was tested and validated with inhibitor 47 through an A101 substrate spike experiment. Additional A101 (5 μL of 4000 μM stock in DMSO) was added to enzymatic reactions lacking in inhibitor (positive control) and pre-treated with inhibitor (50, 100, 150, 200 μM) after the initial reactions were complete and fluorescence plateaus had been reached. Data collection at 37 °C was re-commenced immediately after the addition, and fluorescence was monitored over time as previously described. On the other hand, inhibitors producing kinetic curves in which earlier and lower plateaus in fluorescence or absorbance were observed as inhibitor concentration was increased were assumed to be operating through irreversible time-dependent covalent inactivation. This assumption was tested and validated with inhibitor 23 through an A101 substrate spike experiment in which an additional 5 μL of A101 substrate stock solution (4000 μM in DMSO) was added to the positive control and highest inhibitor concentration (200 μM) reaction. […]
# [1] = small molecule series, irreversible KI for 87 and 88
TG2 Inh. Mode,TG2 inhibition (small molecule series),Compound,also measured
No inhibition; also recorded: None **,–,"C=CC(=O)NCC[C@H](NC(=O)[C@@H](CC(=O)O)NC(C)=O)C(=O)N[C@@H](CCCC)C(=O)N[C@@H](CCCC)C(=O)N[C@@H](CC(C)C)C(=O)N1CCC[C@H]1C(=O)N[C@@H](Cc1c[nH]c2ccccc12)C(=O)N1CCC[C@H]1C(=O)O [Compound 12, Ac-D-Asp-Dab(Acrylamide)-Nle-Nle-Leu-Pro-Trp-Pro-OH] (Ac-[dD][Dab](Acryloyl)[Nle][Nle]LPWP-OH)",–
No inhibition; also recorded: None **,–,C=CC(=O)NCCC[C@H](NC(=O)[C@@H](CC(=O)O)NC(C)=O)C(=O)N[C@@H](CCCC)C(=O)N[C@@H](CCCC)C(=O)N[C@@H](CC(C)C)C(=O)N1CCC[C@H]1C(=O)N[C@@H](Cc1c[nH]c2ccccc12)C(=O)N1CCC[C@H]1C(=O)O [Compound 13] (Ac-[dD][Orn](Acryloyl)[Nle][Nle]LPWP-OH),–
No inhibition; also recorded: None **,–,C=CC(=O)NCCCC[C@H](NC(=O)[C@@H](CC(=O)O)NC(C)=O)C(=O)N[C@@H](CCCC)C(=O)N[C@@H](CCCC)C(=O)N[C@@H](CC(C)C)C(=O)N1CCC[C@H]1C(=O)N[C@@H](Cc1c[nH]c2ccccc12)C(=O)N1CCC[C@H]1C(=O)O [Compound 14] (Ac-[dD]K(Acryloyl)[Nle][Nle]LPWP-OH),–
Irrev,–,CCCC[C@H](NC(=O)[C@H](CCCC=CC(=O)OC)NC(=O)[C@@H](CC(=O)O)NC(C)=O)C(=O)N[C@@H](CCCC)C(=O)N[C@@H](CC(C)C)C(=O)N1CCC[C@H]1C(=O)N[C@@H](Cc1c[nH]c2ccccc12)C(=O)N1CCC[C@H]1C(=O)O [Compound 47] (Ac-[dD][X2][Nle][Nle]LPWP-OH),kinact/KI: 530 M⁻¹ s⁻¹
–,No inhibition,C=CC(=O)NCC(NC(=O)CC(=O)O)C(=O)N1CCN(S(=O)(=O)c2cccc3c(N(C)C)cccc23)CC1 (stereo not drawn) [Compound 71],–
–,No inhibition,C=CC(=O)NCC(NC(=O)CC(=O)O)C(=O)N1CCN(C(=O)c2cccc3ccccc23)CC1 (stereo not drawn) [Compound 72],–
–,No inhibition,C=CC(=O)NCC(NC(=O)C1(C(=O)OC)CC1)C(=O)N1CCN(S(=O)(=O)c2cccc3c(N(C)C)cccc23)CC1 (stereo not drawn) [Compound 73],–
–,No inhibition,"C=CC(=O)NCC(NC(=O)C1(C(=O)O)CC1)C(=O)N1CCN(S(=O)(=O)c2cccc3c(N(C)C)cccc23)CC1 [Compound 74, Acid-Cyclopropyl-L-Dap(Acryl)-Piperazine-Dansyl]",–
–,No inhibition,"C=CC(=O)NCC(NC(=O)CCC(=O)O)C(=O)N1CCN(S(=O)(=O)c2cccc3c(N(C)C)cccc23)CC1 [Compound 75, Succinyl-L-Dap(Acryl)-Piperazine-Dansyl]",–
–,No inhibition,"C=CC(=O)NCC(NC(=O)CCC(=O)O)C(=O)N1CCN(S(=O)(=O)c2cccc3ccccc23)CC1 [Compound 76, Succinyl-L-Dap(Acryl)-Piperazine-Sulfonyl-Naphthalene]",–
–,No inhibition,"C=CC(=O)NCC(NC(=O)CCC(=O)O)C(=O)N1CCN(C(=O)c2cccc3ccccc23)CC1 [Compound 77, Succinyl-L-Dap(Acryl)-Piperazine-Naphthoyl]",–
–,No inhibition,C=CC(=O)NCC(NS(=O)(=O)CC(=O)O)C(=O)N1CCN(S(=O)(=O)c2cccc3c(N(C)C)cccc23)CC1 (stereo not drawn) [Compound 79],–
–,No inhibition,C=CC(=O)NC(CNC(=O)CCC(=O)O)C(=O)N1CCN(C(=O)c2cccc3ccccc23)CC1 (stereo not drawn) [Compound 84],–
–,–,COC(=O)C=CCCC(NC(=O)CCC(=O)O)C(=O)N1CCN(C(=O)c2cccc3ccccc23)CC1 (stereo not drawn) [Compound 87],kinact/KI: 139 M⁻¹ s⁻¹; kinact: 0.00199 s⁻¹; Ki [1]: 14.3 ± 7 µM
–,–,COC(=O)C=CCCC(NC(=O)c1ccccc1C(=O)O)C(=O)N1CCN(C(=O)c2cccc3ccccc23)CC1 (stereo not drawn) [Compound 88],kinact/KI: 104 M⁻¹ s⁻¹; kinact: 0.0022 s⁻¹; KI (inactivation) [1]: 21.2 ± 8.96 µM; Ki [1]: 21.2 ± 9 µM
–,–,CCCC[C@H](NC(=O)[C@H](CC/C=C/C(=O)OC)NC(=O)[C@@H](CC(=O)O)NC(=O)CCCCCNC(=O)[C@@H]1CCCN1C(=O)c1ccccc1-c1c2ccc(=[N+](CC)CC)cc-2oc2cc(N(CC)CC)ccc12)C(=O)N[C@@H](CCCC)C(=O)N[C@@H](CC(C)C)C(=O)N1CCC[C@H]1C(=O)N[C@@H](Cc1c[nH]c2ccccc12)C(=O)N1CCC[C@H]1C(=O)O [Compound 93] (RhodamineB-P[Ahx][dD][X1][Nle][Nle]LPWP-OH),kinact/KI: 325 M⁻¹ s⁻¹

Compound,TG2 Inh. Mode,TG2 inhibition (small molecule series),also measured
CCCC[C@H](NC(=O)[C@H](CC=CC(=O)OC)NC(=O)[C@@H](CC(=O)O)NC(C)=O)C(=O)N[C@@H](CCCC)C(=O)N[C@@H](CC(C)C)C(=O)N1CCC[C@H]1C(=O)N[C@@H](Cc1c[nH]c2ccccc12)C(=O)N1CCC[C@H]1C(=O)O [Compound 45] (Ac-[dD][X3][Nle][Nle]LPWP-OH),No inhibition; also recorded: lack of inhibition; also recorded: None **,–,–
Ac-D-Asp-Dap(Acrylamide)-Nle-Nle-Leu-Pro-Trp-Pro-OH [Compound 11],No inhibition; also recorded: None **,–,–
